Data on eight compounds can be found in ChEMBL document CHEMBL1128953, “Solid-phase synthesis of peptidosulfonamide containing peptides derived from Leu-enkephalin” (Bioorg Med Chem Lett, 1996).

The structures appear in SMILES notation. Peptide text beside a SMILES is read from it. * marks the point of attachment. X1 = CC(C)C[C@@H](CS(N)(=O)=O)N*

A short description of the test: Compound was tested for inhibition of anti-beta-endorphin monoclonal antibody by using ELISA assay. It counts as functional. On the technique in general: ELISA stands for enzyme-linked immunosorbent assay.

Turning to `CC(C)C[C@H](NC(=O)[C@H](Cc1ccccc1)NS(=O)(=O)CCNC(=O)CNC(=O)[C@@H](N)Cc1ccc(O)cc1)C(N)=O`, the 50% inhibitory concentration (IC50) – broadly, the midpoint of a concentration-inhibition curve – stood at 85 µM. This lies in the double-digit micromolar range. Regarding `CC(C)C[C@H](NC(=O)[C@H](Cc1ccccc1)NC(=O)CNS(=O)(=O)CCNC(=O)[C@@H](N)Cc1ccc(O)cc1)C(=O)O`, the IC50 was > 200 µM. `CC(C)C[C@H](NS(=O)(=O)C[C@H](Cc1ccccc1)NC(=O)CNC(=O)CNC(=O)[C@@H](N)Cc1ccc(O)cc1)C(=O)O` showed an IC50 of 5 µM. Under `CC(C)C[C@@H](CS(N)(=O)=O)NC(=O)[C@H](Cc1ccccc1)NC(=O)CNC(=O)CNC(=O)[C@@H](N)Cc1ccc(O)cc1` (H-YGGF-X1) stands 0.1 µM; under `CC(C)C[C@H](NC(=O)[C@H](Cc1ccccc1)NC(=O)CNS(=O)(=O)CCNC(=O)[C@@H](N)Cc1ccc(O)cc1)C(N)=O`, 75 µM; under `CC(C)C[C@H](NC(=O)[C@H](Cc1ccccc1)NC(=O)CNC(=O)CNC(=O)[C@@H](N)Cc1ccc(O)cc1)C(N)=O` [[LEU5]ENKEPHALIN], 0.07 µM. Regarding `CC(C)C[C@H](NS(=O)(=O)C[C@H](Cc1ccccc1)NC(=O)CNC(=O)CNC(=O)[C@@H](N)Cc1ccc(O)cc1)C(N)=O`, the concentration for half-maximal inhibition (IC50) amounted to 0.9 µM.

As to `CC(C)C[C@H](NC(=O)[C@H](Cc1ccccc1)NS(=O)(=O)CCNC(=O)CNC(=O)[C@@H](N)Cc1ccc(O)cc1)C(=O)O`, the IC50 was > 200 µM.
